Reference: publication PMC7059793, “Novel Chemical Scaffolds to Inhibit the Neutral Amino Acid Transporter B^0AT1 (SLC6A19), a Potential Target to Treat Metabolic Diseases” (Frontiers in Pharmacology, 2020)

Assays:
B^0AT1 [1] = target: T1, B^0AT1 (Homo sapiens, UniProt Q695T7); assay: FLIPR assay with inhibitors alone in the absence of substrate (substrate test) in CHO-BC cells; type: cell-based; conditions: 30 μM, baseline 100 RFU
T1 construct: expressed in transfected cells
T1 sequence (Q695T7 1-634): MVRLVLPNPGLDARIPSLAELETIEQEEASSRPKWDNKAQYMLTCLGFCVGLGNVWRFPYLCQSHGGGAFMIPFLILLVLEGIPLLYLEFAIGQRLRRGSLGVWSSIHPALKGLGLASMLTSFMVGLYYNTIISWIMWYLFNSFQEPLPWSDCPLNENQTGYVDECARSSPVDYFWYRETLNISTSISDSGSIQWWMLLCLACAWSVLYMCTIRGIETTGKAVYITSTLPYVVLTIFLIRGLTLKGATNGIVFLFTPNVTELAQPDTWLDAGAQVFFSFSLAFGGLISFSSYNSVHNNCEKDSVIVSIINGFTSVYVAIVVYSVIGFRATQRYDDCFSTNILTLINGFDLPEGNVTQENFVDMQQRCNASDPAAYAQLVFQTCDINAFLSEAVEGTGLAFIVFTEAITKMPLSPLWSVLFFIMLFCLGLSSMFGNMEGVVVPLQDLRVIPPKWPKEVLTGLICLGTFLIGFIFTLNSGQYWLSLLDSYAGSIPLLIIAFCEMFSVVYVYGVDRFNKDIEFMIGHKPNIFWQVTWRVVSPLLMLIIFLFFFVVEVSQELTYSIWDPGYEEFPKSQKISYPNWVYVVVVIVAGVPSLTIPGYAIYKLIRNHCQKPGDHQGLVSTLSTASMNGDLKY
T1 sequence (Q9HBJ8 15-222 partner): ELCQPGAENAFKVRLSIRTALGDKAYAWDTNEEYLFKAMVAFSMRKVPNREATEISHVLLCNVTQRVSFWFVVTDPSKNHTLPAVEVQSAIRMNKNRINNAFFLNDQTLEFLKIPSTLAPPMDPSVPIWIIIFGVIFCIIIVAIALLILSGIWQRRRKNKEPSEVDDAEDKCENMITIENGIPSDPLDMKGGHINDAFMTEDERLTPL
Description: Membrane depolarisation induced by amino acid transport was monitored using a FLIPR® kit (Molecular Devices, R8042 BLUE DYE). Before the assay, CHO-BC cells were seeded out at a density of 60,000 cells/well and maintained in a flat transparent bottom 96-well plate (Corning) overnight. After washing three times with Hank’s balanced salt solution (136.6 mM NaCl, 5.4 mM KCl, 0.44 mM KH2PO4, 2.7mM Na2HPO4, 1.26mM CaCl2, 0.5mM MgCl2, 0.4 mM MgSO4, 10mM HEPES, pH 7.5, supplemented with 5 mM glucose, abbreviated HBSS + G), cells in each well were incubated for 30 min at room temperature in 50 µl of HBSS pH 7.5 containing 5 mM glucose and compounds as indicated, together with 50 µl of dye-loading buffer provided with the kit. […] Fluorescence was detected at room temperature using a PerkinElmer multimode Plate Reader, with an excitation wavelength of 530 nm and emission wavelength of 565 nm.
Figure 6 Specificity and efficacy of B^0AT1 inhibitors. […] Although structurally unrelated to the substrates of the transporter, compounds E4, E18, and CB3 are highly specific.

B^0AT1 [2] = target: T2, B^0AT1 (Mus musculus, UniProt Q9D687); assay: Na+-dependent leucine uptake in inverted sections of mouse intestine; conditions: 50 μM inhibitor, 150 μM [14C]leucine
T2 construct: from tissue; host or cells: small intestine of C57/BL6J female mice, inverted 1 cm sections
Excerpt: For uptake assays with inverted sections of mouse small intestine, 5–7 months old C57/BL6J female mice were sacrificed by cervical dislocation (Animal ethics protocol A2016/41, Australian National University). The small intestine was removed and the intestinal lumen was rinsed with ice-cold 0.9% NaCl. Subsequently, the small intestine was inverted on a metal rod to expose the mucosa. The inverted intestine was then cut into 1 cm pieces and fitted onto enzyme spatulas, which were immersed in HBSS pH 7.5 supplemented with 1 mM glutamine and protease inhibitor (Roche Complete). After washing twice in modified HBSS pH 7.5 (containing 10% NaCl + 90% NMDG-Cl for Na^+-dependent uptake and 100% NMDG-Cl for Na^+-independent uptake, both buffers supplemented with 1 mM glutamine) to remove residual compounds, the segments were pre-incubated in the same buffer in the presence of 50 µM of transport inhibitor and protease inhibitors for 15 min. At the end of the pre-incubation, the segments were transferred for 30 s into uptake buffer at 37°C (HBSS pH 7.5 supplemented with 150 μM [^14C]leucine and 50 µM transport inhibitor). For Na^+-dependent uptake regular HBSS was used, for Na^+-independent uptake NaCl was replaced by NMDG-Cl. Subsequently, the segments were rinsed three times in ice-cold HBSS pH 7.5 and lysed in 400 µl of 10% SDS. After 2–3 h, the lysed tissues were analyzed by scintillation counting.
To test whether the novel B^0AT1 inhibitors block the transporter in a more physiological environment, we studied leucine uptake in inverted sections of mouse intestine ( Figure 6C ). We established previously that Na^+-dependent leucine uptake (blue bars) in this system is mediated by B^0AT1 ([Broer et al., 2011]). In addition leucine uptake has a Na^+-independent transport component (salmon coloured bars), which is most likely mediated by rbat/b^0,+AT. Because of variability between animals, all data were normalized to uninhibited controls from the same animal.

T2 sequence (Q9D687 whole entry): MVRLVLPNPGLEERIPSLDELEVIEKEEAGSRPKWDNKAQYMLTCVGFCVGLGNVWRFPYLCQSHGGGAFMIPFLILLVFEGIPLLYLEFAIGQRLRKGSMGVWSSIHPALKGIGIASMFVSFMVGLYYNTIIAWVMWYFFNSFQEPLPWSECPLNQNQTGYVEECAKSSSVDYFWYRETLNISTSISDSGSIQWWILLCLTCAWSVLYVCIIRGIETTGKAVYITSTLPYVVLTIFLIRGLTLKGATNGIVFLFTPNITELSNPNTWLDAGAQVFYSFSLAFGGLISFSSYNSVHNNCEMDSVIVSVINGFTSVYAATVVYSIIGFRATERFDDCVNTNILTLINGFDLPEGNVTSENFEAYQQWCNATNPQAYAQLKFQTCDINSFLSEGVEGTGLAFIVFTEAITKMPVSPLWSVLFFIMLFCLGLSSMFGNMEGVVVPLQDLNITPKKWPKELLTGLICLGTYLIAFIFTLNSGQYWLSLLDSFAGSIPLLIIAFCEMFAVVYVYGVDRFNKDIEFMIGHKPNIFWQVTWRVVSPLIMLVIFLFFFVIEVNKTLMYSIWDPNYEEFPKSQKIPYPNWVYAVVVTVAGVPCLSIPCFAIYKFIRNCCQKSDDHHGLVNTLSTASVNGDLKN
T2 sequence (Q8R0I0 18-805 partner): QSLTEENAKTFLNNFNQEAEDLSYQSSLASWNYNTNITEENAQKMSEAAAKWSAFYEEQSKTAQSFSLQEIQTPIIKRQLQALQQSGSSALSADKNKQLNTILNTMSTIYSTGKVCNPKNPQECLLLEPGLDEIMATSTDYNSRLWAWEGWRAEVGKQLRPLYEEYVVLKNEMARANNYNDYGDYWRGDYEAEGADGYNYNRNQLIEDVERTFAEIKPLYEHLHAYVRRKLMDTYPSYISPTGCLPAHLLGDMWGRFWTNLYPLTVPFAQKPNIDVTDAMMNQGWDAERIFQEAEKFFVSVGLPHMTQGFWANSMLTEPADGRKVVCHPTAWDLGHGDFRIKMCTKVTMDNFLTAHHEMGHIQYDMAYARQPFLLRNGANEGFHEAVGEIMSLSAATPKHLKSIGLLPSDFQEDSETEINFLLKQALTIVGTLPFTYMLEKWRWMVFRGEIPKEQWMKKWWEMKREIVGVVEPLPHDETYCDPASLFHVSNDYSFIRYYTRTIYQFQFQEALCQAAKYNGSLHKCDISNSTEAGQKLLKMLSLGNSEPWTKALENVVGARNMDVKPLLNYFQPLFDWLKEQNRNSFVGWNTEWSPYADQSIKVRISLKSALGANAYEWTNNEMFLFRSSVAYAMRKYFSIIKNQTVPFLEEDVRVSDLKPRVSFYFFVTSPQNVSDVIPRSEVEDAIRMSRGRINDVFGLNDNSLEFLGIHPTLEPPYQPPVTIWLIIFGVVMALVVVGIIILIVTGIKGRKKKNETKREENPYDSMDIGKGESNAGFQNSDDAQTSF

Inhibition of Na+-dependent leucine uptake (B^0AT1) ex vivo (B^0AT1 [2]) | Structure (SMILES) | Fluorescence signal when tested alone (no substrate) (B^0AT1 [1])
more potent | COc1ccccc1Nc1nc2ccccc2s1 [Compound E18] | did not increase fluorescence above the baseline
more potent | Cc1cc(C(=O)Nc2ccc(Cl)cc2C(F)(F)F)no1 [CB3] | did not increase fluorescence above the baseline
limited capacity to inhibit B^0AT1 | Cc1cc(OCC(=O)NC(C)C)cc(C)c1Cl [Compound E4] | did not increase fluorescence above the baseline
